Active and inactive are the calls of the source. The rule behind the calls is not given here.
Columns and labels:
[1] = system: R2; test: Cytotoxicity against RFC-deficient Chinese hamster R2 cells assessed as growth inhibition after 96 hrs by CellTiter-Blue assay; assay type: cell-based; details: Cricetulus griseus, R2, 96 h
[2] = Cytotoxicity against PCFT-deficient Chinese hamster R2(VC) cells assessed as growth inhibition after 96 hrs by CellTiter-Blue assay; assay type: cell-based; details: Cricetulus griseus
[3] = system: KB; test: Antiproliferative activity against human KB cells expressing RFC/FRalpha/PCFT after 96 hrs by CellTiter-Blue assay; assay type: functional, cell-based
[4] = system: KB; test: Antiproliferative activity against human KB cells expressing RFC/FRalpha/PCFT after 96 hrs by CellTiter-Blue assay in presence of 200 nM folic acid; assay type: functional, cell-based
[5] = target: Bifunctional purine biosynthesis protein ATIC (Homo sapiens) (UniProt P31939); test: Inhibition of AICARFTase in human KB cells expressing RFC/FRalpha/PCFT assessed as cell growth inhibition at 1 to 1000 nM after 96 hrs by CellTiter-Blue assay in presence of 320 uM AICA; assay type: cell-based
[6] = target: T1, Trifunctional purine biosynthetic protein adenosine-3 (Homo sapiens, UniProt P22102); test: Inhibition of GARFTase in human KB cells expressing RFC/FRalpha/PCFT assessed as incorporation of [U-14C]-glycine into [14C]-formyl glycinamide ribonucleotide incubated for 1 hr followed by [U-14C]-glycine addition measured after 16 hrs; assay type: cell-based
T1 sequence (P22102 whole entry): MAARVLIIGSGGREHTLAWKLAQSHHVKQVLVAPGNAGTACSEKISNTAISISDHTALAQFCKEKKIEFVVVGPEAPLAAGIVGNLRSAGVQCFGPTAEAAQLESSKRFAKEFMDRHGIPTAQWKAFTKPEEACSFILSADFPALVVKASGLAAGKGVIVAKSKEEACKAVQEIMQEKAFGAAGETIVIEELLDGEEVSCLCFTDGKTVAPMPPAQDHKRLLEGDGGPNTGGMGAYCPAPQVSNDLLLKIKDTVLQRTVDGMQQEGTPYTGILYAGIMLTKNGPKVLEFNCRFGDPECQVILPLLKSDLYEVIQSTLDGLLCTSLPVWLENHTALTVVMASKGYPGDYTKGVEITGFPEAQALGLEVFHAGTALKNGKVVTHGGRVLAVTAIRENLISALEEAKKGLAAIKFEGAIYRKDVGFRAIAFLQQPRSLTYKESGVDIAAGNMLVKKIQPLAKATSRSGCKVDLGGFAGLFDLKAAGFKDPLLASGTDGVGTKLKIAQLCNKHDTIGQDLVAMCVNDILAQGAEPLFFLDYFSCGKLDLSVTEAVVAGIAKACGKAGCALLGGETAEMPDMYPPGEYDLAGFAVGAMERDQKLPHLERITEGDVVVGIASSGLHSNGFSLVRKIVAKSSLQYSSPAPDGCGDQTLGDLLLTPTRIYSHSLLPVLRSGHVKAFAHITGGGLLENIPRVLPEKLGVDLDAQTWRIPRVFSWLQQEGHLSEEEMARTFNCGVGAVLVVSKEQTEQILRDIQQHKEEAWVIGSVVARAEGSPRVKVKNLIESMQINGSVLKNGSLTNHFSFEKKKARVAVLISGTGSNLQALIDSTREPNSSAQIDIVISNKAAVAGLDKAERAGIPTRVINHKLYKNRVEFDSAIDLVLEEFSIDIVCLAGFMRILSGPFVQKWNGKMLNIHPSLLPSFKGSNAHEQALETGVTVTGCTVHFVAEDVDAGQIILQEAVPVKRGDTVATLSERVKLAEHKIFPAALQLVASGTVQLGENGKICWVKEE

[7] = target: T2, GAR transformylase/AICAR transformylase (Homo sapiens) (UniProt P31939+P22102); details: KB, at 1 to 1000 nM
Description: Inhibition of GARFTase/AICARFTase in human KB cells expressing RFC/FRalpha/PCFT assessed as cell growth inhibition at 1 to 1000 nM after 96 hrs by CellTiter-Blue assay in presence of 60 uM adenosine

[8] = target: T2, GAR transformylase/AICAR transformylase (Homo sapiens); details: KB, at 1 to 1000 nM; remark: listed apart in the source
Description: Inhibition of GARFTase/AICARFTase in human KB cells expressing RFC/FRalpha/PCFT assessed as cell growth inhibition at 1 to 1000 nM after 96 hrs by CellTiter-Blue assay in presence of 10 uM thymidine

T2 sequence (P31939 whole entry, looked up, one chain of several): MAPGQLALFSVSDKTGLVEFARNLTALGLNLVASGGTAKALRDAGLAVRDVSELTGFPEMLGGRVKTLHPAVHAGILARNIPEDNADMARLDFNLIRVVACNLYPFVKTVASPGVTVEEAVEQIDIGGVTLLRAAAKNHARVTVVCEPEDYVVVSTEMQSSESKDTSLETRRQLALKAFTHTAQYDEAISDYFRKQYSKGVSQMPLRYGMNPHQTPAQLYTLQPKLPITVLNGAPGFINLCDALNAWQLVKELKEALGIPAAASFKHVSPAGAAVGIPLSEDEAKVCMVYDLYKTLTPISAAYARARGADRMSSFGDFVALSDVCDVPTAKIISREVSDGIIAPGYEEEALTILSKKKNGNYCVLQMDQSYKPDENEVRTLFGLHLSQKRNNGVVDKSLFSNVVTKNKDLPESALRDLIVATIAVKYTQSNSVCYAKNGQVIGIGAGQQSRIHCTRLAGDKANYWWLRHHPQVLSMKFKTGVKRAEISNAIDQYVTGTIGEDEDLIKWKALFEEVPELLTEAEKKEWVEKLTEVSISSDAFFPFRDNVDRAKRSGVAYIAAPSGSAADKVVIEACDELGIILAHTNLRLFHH
Bifunctional purine biosynthesis protein ATIC (Homo sapiens), sequence (P31939 whole entry, looked up): as the sequence (P31939 whole entry, looked up, one chain of several) above

Structure (SMILES) | IC50 [1] [nM] | IC50 [2] [nM] | IC50 [3] [nM] | Activity [4] | inhibition [5] | IC50 [6] [nM] | inhibition [7] | inhibition [8]
Nc1nc2[nH]cc(CCc3ccc(C(=O)N[C@@H](CCC(=O)O)C(=O)O)s3)c2c(=O)[nH]1 | > 1000 | > 1000 | 875 |  |  |  |  | 
Nc1nc2[nH]cc(CCCCCCc3ccc(C(=O)N[C@@H](CCC(=O)O)C(=O)O)s3)c2c(=O)[nH]1 | > 1000 | > 1000 | > 1000 |  |  |  |  | 
Nc1nc2[nH]cc(Cc3ccc(C(=O)N[C@@H](CCC(=O)O)C(=O)O)s3)c2c(=O)[nH]1 | > 1000 | > 1000 | > 1000 |  |  |  |  | 
Nc1nc2[nH]cc(CCCCc3ccc(C(=O)N[C@@H](CCC(=O)O)C(=O)O)s3)c2c(=O)[nH]1 | > 1000 | > 1000 | 66 | inactive | Active | 61 | inactive | Active
Nc1nc2[nH]cc(CCCc3ccc(C(=O)N[C@@H](CCC(=O)O)C(=O)O)s3)c2c(=O)[nH]1 | > 1000 | > 1000 | 211 |  | Active |  | inactive | Active
Nc1nc2[nH]cc(CCCCCc3ccc(C(=O)N[C@@H](CCC(=O)O)C(=O)O)s3)c2c(=O)[nH]1 | > 1000 | > 1000 | 41.7 | inactive | inactive |  | inactive | Active
Nc1nc2[nH]c(CCCCc3ccc(C(=O)N[C@@H](CCC(=O)O)C(=O)O)s3)cc2c(=O)[nH]1 | > 1000 | > 1000 |  |  | inactive | 3.13 |  | 

Source: ChEMBL document CHEMBL3407468, “Novel 5-substituted pyrrolo[2,3-d]pyrimidines as dual inhibitors of glycinamide ribonucleotide formyltransferase and 5-aminoimidazole-4-carboxamide ribonucleotide formyltransferase and as potential antitumor agents” (J Med Chem, 2015)
